# B1: HEF1 carboxy-terminal domain (other)
# chain: IMKQNKMQLEHHQLSQFQLLEQEITKPVENDISKWKPSQSLPTTNSGVSAQDRQLLCFYYDQCETHFISLLNAIDALFSCVSSAQPPRIFVAHSKFVILSAHKLVFIGDTLTRQVTAQDIRNKVMNSSNQLCEQLKTIVMATKMAALHYPSTTALQEMVHQVTDLSRNAQLFKRSLLEMATF
# notes: Tested as a two-hybrid fusion; also called C-terminal effector domain; HEF1-Cterm182
# Columns and labels:
# caspase 3 = assay: Caspase activity assay: Ac-DEVD-pNA cleavage by lysates of HEF1-expressing MCF-7 cells; assay type: biochemical, human; conditions: z-DEVD-fmk 0.5 μM; Ac-DEVD-pNA 250 μM; lysates of induced HEF1 cells; 24 hr; 405 nm
# Method: HEF1 expression and caspase activity. Stable cell lines containing parental tetracycline-regulatable vector with or without the full length HEF1 cDNA were generated in MCF-7 cells (Example 2). These were plated at a density of approximately 1×10^6 cells per 100 mm plate into fresh DMEM plus 10% fetal bovine serum in the absence of tetracycline and other selective antibiotics (induced) or in the presence of 1 μg/ml tetracycline (uninduced). Floating and attached cells were combined and extracted in caspase assay buffer (50 mM HEPES, pH 7.4, 100 mM NaCl, 0.1% CHAPS, 10 mM DTT, 1 mM EDTA, and 10% glycerol). Protein content of extracts was determined using the Bio-Rad protein assay as per the manufacturer's instructions (Bio-Rad, Hercules, Calif.). Caspase assays were performed as previously described (DiPietrantonio et al. (1999) Biochem Biophys Res Commun 255:477-82). […] Triplicate samples were incubated at room temperature and the release of pNA product was monitored at 405 nm a microtiter plate reader (Multiskan Plus, Labsystems, Helsinki. Finland). Initial readings were taken at the start of the incubation (T0) and final readings were taken at the completion of the reaction at 24 hr (T1). The change in absorbance over time was determined by subtracting T0 from T1 for each sample.
# MCF-7 cells = assay: Induction of apoptosis by TNF-α in MCF-7 cells, Western blot of caspase cleavage products and cell death; assay type: cell-based, human; conditions: 48 hours
# Method: Induction of apoptosis. MCF-7 cells were plated and grown for 48 hours reaching a cell density of 70% prior to TNF-α addition. Media was replaced with fresh media supplemented with 100 ng/ml TNF-α. TNF-α treatment of stable cell lines was carried out by plating, cells directly into fresh DMEM plus 10% fetal bovine serum, with or without addition of tetracycline as indicated, containing 100 ng/ml TNF-α. Cells floating in the media were collected by centrifugation (1,200 rpm, 5 min) and extracted in combination with attached cells at the time points indicated, as described below. WeHI 231 cells were plated at a density of 5×10^4 cells/ml and treated with 1 μg/ml of α-IgM antibodies in complete media. Cells were collected by centrifugation and lysed as stated below.
# Lysates were made as previously described (39; 41) in A-PTY buffer (50 mM HEPES, pH 7.5, 50 mM NaCl, 5 mM EDTA, 1% Triton X-100, 50 mM NaF, 10 mM Na4P2O7 and supplemented each extraction with 1 mM phenylmethylsulfonylfluoride, 0.01 mg/ml aprotinin and 0.01 mg/ml leupeptin). For adherent cultures, floating cells were pooled with the adherent cells prior to lysis. The cell pellet was then lysed in combination with lysates from the attached cells. […] Detection was via chemiluminescence as described (Law et al. (1996) Mol. Cell. Biol. 16: 3327-3337).
# [1] = biological target: the molecule itself; assay: yeast two-hybrid analysis
# Text: EGY48 yeast (Gyuris et al., 1993, supra) were transformed by standard methods with plasmids expressing LexA-fusions, activation-domain fusions, or both, together with the LexA operator-LacZ reporter SH18-34 (Gyuris et al., 1993, supra). For all fusion proteins, synthesis of a fusion protein of the correct length in yeast was confirmed by Western blot assays of yeast extracts (Samson et al., Cell 57: 1045–1052, 1989) using polyclonal antiserum specific for LexA (Brent and Ptashne, Nature 312: 612–615, 1984) or for hemagglutinin (Babco, Inc), as appropriate. Activation of the LacZ reporter was determined as previously described (Brent and Ptashne, Cell 43: 729–736, 1985). Beta-galactosidase assays were performed on three independent colonies, on three separate occasions, and values for particular plasmid combinations varied less than 25%. Activation of the LEU2 reporter was determined by observing the colony forming ability of yeast plated on complete minimal medium lacking leucine. The LexA-PRD/HD expressing plasmid has been described (Golemis and Brent, Mol. Cell Biol. 12: 3006–3014, 1992).
# The possible functions for the novel carboxy-terminal domains were investigated further using two-hybrid analysis.
molecule,measurement,setting,value
z-DEVD-fmk,activity towards the caspase 3 substrate Ac-DEVD-pNA in HEF1 expressing cells,caspase 3,potently blocked
TNF-α,"cell rounding and death, gross morphology","MCF-7 cells; TNF-α alone, uninduced cells",low level of cell rounding and death
same,cell death,MCF-7 cells; TNF-α together with HEF1 induction,~100%
same,PARP cleavage,"MCF-7 cells; uninduced HEF1 cells and vector control MCF-7 cells, TNF-α",detected
B1,binding result,[1],binds

# From US6653074B1, “Methods for identifying agents which affect cellular morphology, locomotion and death” (Fox Chase Cancer Center, priority 1995, dated 2003)
